Laboratory results published in US20250019376A1, “CHROMANE AMIDINE MONOBACTAM ANTIBIOTICS” (priority 2021, published 2025).

Experiments:
Settings in all cases: lowest concentration inhibiting 95% of growth (OD600); with BLi relebactam 4 μg/mL; 22 hours, 35±2° C.
[1] = tested on: Acinetobacter baumannii expressing TEM-1, AmpC, and Oxa-24/40 (CL6188); type: cell-based
Experimental: (§1) The concentrations of compounds required to inhibit the growth of various strains of bacteria were determined in an assay that assessed bacterial growth by measuring optical density at 600 nm (OD600). The bacterial strains tested included the clinical strains Escherichia co/i expressing NDM-1 (CLB30016), Klebsiella pneumoniae expressing KPC-1 (CL6569), Acinetobacter baumannii expressing TEM-1, AmpC, and Oxa-24/40 (CL6188) and Pseudomonas aeruginosa expressing AmpC (CL5701). All compounds were tested in the presence of a f3 lactamase inhibitor (BLi, Relebactam) in 384-well microplates.
(§2) The clinical strains were stored as frozen single use stocks, thawed and diluted into 1.1× cation-adjusted Mueller-Hinton 11 broth to achieve approximately 2×10^5 CFU/mL. Test compounds were dissolved in DMSO and diluted 1:50 in the assay, resulting in a final concentration range of 100 μM to 0.098 μM. On the day of the assay, 1 μL of test compound was added to the plate followed by 4 μL of 50 μg/mL BLi in MOPS buffer and 45 μL of diluted bacteria. Plates were centrifuged at 1000 rpm for 30 seconds, shaken at approximately 800 rpm for 1 minute, and incubated at 35±2° C. for 22 hours. The concentration of BLi used in the assay was 4 μg/mL. At the end of the incubation, absorbance at 600 nm was determined using a spectrophotometer. Inhibition was quantitated by identifying the lowest concentration of test compound that was required to inhibit […] of the growth of the bacteria.

[2] = tested on: Escherichia co/i expressing NDM-1 (CLB30016); experiment: Growth inhibitory concentration (OD600), E. coli CLB30016; type: cell-based, Escherichia coli
Experimental: as §1, §2

[3] = tested on: Klebsiella pneumoniae expressing KPC-1 (CL6569); experiment: Growth inhibitory concentration (OD600), K. pneumoniae CL6569; type: cell-based
Experimental: as §1, §2

[4] = tested on: Pseudomonas aeruginosa expressing AmpC (CL5701); experiment: Growth inhibitory concentration (OD600), P. aeruginosa CL5701; type: cell-based
Experimental: as §1, §2

SMILES	AB_CL6188 MITC95 [1]	EC_CLB30016 MITC95 [2]	KP_CL6569 MITC95 [3]	PA_CL5701 MITC95 [4]
CC1(C)[C@H](NC(=O)/C(=N\O[C@](C)(C(=O)O)[C@H]2CCc3cc(C(=N)N[C@H]4C[C@@H](N)C4)ccc3O2)c2csc(N)n2)C(=O)N1OS(=O)(=O)O [Compound 7, (S)-2-((R)-6-(N-((1 s,3 S)-3-aminocyclobutyl)carbamimidoyl)chroman-2-yl)-2-((((Z)-1-(2-aminothiazol-4-yl)-2-(((S)-2,2-dimenthyl-4-oxo-1-(sulfooxy)azetidin-3-yl)amino)-2-oxoethylidene)amino)oxy)propanoic acid]	5.729 µM	4.688 µM	0.3906 µM	
CC1(C)[C@H](NC(=O)/C(=N\O[C@](C)(C(=O)O)[C@H]2CCc3cc(C(=N)N[C@H]4C[C@@]5(CCNC5)C4)ccc3O2)c2csc(N)n2)C(=O)N1OS(=O)(=O)O [Compound 23, (S)-2-((R)-6-(N-((2s,4R)-6-azaspiro[3.4]octan-2-yl)carbamimidoyl)chroman-2-yl)-2-((((Z)-1-(2-aminothiazol-4-yl)-2-(((S)-2,2-dimethyl-4-oxo-1-(sulfooxy)azetidin-3-yl)amino)-2-oxoethylidene)amino)oxy)propanoic acid]	6.25 µM	6.25 µM	0.7813 µM	
CC1(C)[C@H](NC(=O)/C(=N\O[C@](C)(C(=O)O)[C@H]2CCc3cc(C(=N)NC4CC5(CC(N)C5)C4)ccc3O2)c2csc(N)n2)C(=O)N1OS(=O)(=O)O (stereo partly drawn) [Compound 61, (S)-2-((R)-6-(N-((2R,4r,6R)-6-aminospiro[3.3]heptan-2-yl)carbamimidoyl)chroman-2-yl)-2-((((Z)-1-(2-aminothiazol-4-yl)-2-(((S)-2,2-dimethyl-4-oxo-1-(sulfooxy)azetidin-3-yl)amino)-2-oxoethylidene)amino)oxy)propanoic acid]	6.25 µM		0.3906 µM	1.563 µM
COCC[C@]1(N)CC[C@H](NC(=N)c2ccc3c(c2)CC[C@H]([C@](C)(O/N=C(\C(=O)N[C@@H]2C(=O)N(OS(=O)(=O)O)C2(C)C)c2csc(N)n2)C(=O)O)O3)CC1 [Compound 64, (S)-2-((R)-6-(N-((1r,4R)-4-amino-4-(2-methoxyethyl)cyclohexyl)carbamimidoyl)chroman-2-yl)-2-((((Z)-1-(2-aminothiazol-4-yl)-2-(((S)-2,2-dimethyl-4-oxo-1-(sulfooxy)azetidin-3-yl)amino)-2-oxoethylidene)amino)oxy)propanoic acid]	6.25 µM		0.7813 µM	3.125 µM
CC1(C)[C@H](NC(=O)/C(=N\O[C@](C)(C(=O)O)[C@H]2CCc3cc(C(=N)NC4CCC(N)(CO)CC4)ccc3O2)c2csc(N)n2)C(=O)N1OS(=O)(=O)O (stereo partly drawn) [Compound 70, (S)-2-((R)-6-(N-((1s,4S)-4-amino-4-(hydroxymethyl)cyclohexyl)carbamimidoyl)chroman-2-yl)-2-((((Z)-1-(2-aminothiazol-4-yl)-2-(((S)-2,2-dimethyl-4-oxo-1-(sulfooxy)azetidin-3-yl)amino)-2-oxoethylidene)amino)oxy)propanoic acid]	4.688 µM		0.293 µM	
CC1(C)[C@H](NC(=O)/C(=N\O[C@](C)(C(=O)O)[C@H]2CCc3cc(C(=N)NC4CC(N)(C[C@H](O)CO)C4)ccc3O2)c2csc(N)n2)C(=O)N1OS(=O)(=O)O (stereo partly drawn) [Compound 94, (S)-2-((R)-6-(N-((1S,3R)-3-amino-3-((S)-2,3-dihydroxypropyl)cyclobutyl)carbamimidoyl)chroman-2-yl)-2-((((Z)-1-(2-aminothiazol-4-yl)-2-(((S)-2,2-dimethyl-4-oxo-1-(sulfooxy)azetidin-3-yl)amino)-2-oxoethylidene)amino)oxy)propanoic acid]	6.25 µM	3.125 µM	0.3906 µM	
CC1(C)[C@H](NC(=O)/C(=N\O[C@](C)(C(=O)O)[C@H]2CCc3cc(C(=N)N[C@H]4C[C@@](N)(C[C@@H](O)CO)C4)ccc3O2)c2csc(N)n2)C(=O)N1OS(=O)(=O)O [Compound 95, (S)-2-((R)-6-(N-((1R,3R)-3-amino-3-((R)-2,3-dihydroxypropyl)cyclobutyl)carbamimidoyl)chroman-2-yl)-2-((((Z)-1-(2-aminothiazol-4-yl)-2-(((S)-2,2-dimethyl-4-oxo-1-(sulfooxy)azetidin-3-yl)amino)-2-oxoethylidene)amino)oxy)propanoic acid]	6.25 µM	6.25 µM	0.3906 µM	
COCc1c(C(=N)N[C@H]2C[C@@H](N)C2)ccc2c1CC[C@H]([C@](C)(O/N=C(\C(=O)N[C@@H]1C(=O)N(OS(=O)(=O)O)C1(C)C)c1csc(N)n1)C(=O)O)O2 [Compound 124, (S)-2-((R)-6-(N-((1s,3S)-3-aminocyclobutyl)carbamimidoyl)-5-(methoxymethyl)chroman-2-yl)-2-((((Z)-1-(2-aminothiazol-4-yl)-2-(((S)-2,2-dimethyl-4-oxo-1-(sulfooxy)azetidin-3-yl)amino)-2-oxoethylidene)amino)oxy)propanoic acid]	12.5 µM	50 µM	1.563 µM	
COC[C@]1(NC(=N)c2ccc3c(c2)CC[C@H]([C@](C)(O/N=C(\C(=O)N[C@@H]2C(=O)N(OS(=O)(=O)O)C2(C)C)c2csc(N)n2)C(=O)O)O3)CC[C@@H](N)CC1 [Compound 126, (S)-2-((R)-6-(N-((1s,4S)-4-amino-1-(methoxymethyl)cyclohexyl)carbamimidoyl)chroman-2-yl)-2-((((Z)-1-(2-aminothiazol-4-yl)-2-(((S)-2,2-dimethyl-4-oxo-1-(sulfooxy)azetidin-3-yl)amino)-2-oxoethylidene)amino)oxy)propanoic acid]	12.5 µM	25 µM	1.563 µM	
COC[C@]1(NC(=N)c2ccc3c(c2)CC[C@H]([C@](C)(O/N=C(\C(=O)N[C@@H]2C(=O)N(OS(=O)(=O)O)C2(C)C)c2csc(N)n2)C(=O)O)O3)CC[C@H](N)CC1 [Compound 127, (S)-2-((R)-6-(N-((1r,4R)-4-amino-1-(methoxymethyl)cyclohexyl)carbamimidoyl)chroman-2-yl)-2-((((Z)-1-(2-aminothiazol-4-yl)-2-(((S)-2,2-dimethyl-4-oxo-1-(sulfooxy)azetidin-3-yl)amino)-2-oxoethylidene)amino)oxy)propanoic acid]	12.5 µM	6.25 µM	0.7813 µM	
